# Assay results as given in patent US20250228873A1, “C25 R AND S ISOMERS OF AMINOSTEROLS AND METHODS OF MAKING AND USING THE SAME” (Enterin, Inc., priority 2022, published 2025).
# Where two headings read alike, the source gives them in different places.
# What was measured:
# [1] = target: T1, PTPN11/SHP2-FL (Homo sapiens, UniProt Q06124); assay: Phosphatase panel, DiFMUP assay with activating peptide
# T1 sequence (Q06124 2-597 isoform Q06124-1): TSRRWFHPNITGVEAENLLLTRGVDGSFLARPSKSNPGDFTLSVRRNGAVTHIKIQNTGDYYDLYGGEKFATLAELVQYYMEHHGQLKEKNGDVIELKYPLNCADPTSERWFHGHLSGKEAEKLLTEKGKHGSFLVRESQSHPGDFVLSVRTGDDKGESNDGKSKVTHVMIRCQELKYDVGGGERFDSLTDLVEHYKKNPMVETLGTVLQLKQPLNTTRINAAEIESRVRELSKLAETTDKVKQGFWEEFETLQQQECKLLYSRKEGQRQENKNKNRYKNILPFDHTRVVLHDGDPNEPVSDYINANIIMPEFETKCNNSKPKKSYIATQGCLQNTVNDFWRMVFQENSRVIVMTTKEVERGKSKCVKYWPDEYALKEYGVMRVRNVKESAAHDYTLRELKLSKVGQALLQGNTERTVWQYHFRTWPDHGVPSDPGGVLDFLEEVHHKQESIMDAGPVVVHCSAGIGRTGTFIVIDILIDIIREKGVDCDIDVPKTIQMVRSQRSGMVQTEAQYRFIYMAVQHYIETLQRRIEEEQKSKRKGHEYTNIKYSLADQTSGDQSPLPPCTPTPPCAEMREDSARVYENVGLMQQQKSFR
# [2] = target: T2, PTPRC/CD45 (Homo sapiens, UniProt P08575); assay: Phosphatase panel, DiFMUP fluorescence assay; format: biochemical
# T2 construct: purchased Recation Biology Inc
# T2 sequence (P08575 26-1306): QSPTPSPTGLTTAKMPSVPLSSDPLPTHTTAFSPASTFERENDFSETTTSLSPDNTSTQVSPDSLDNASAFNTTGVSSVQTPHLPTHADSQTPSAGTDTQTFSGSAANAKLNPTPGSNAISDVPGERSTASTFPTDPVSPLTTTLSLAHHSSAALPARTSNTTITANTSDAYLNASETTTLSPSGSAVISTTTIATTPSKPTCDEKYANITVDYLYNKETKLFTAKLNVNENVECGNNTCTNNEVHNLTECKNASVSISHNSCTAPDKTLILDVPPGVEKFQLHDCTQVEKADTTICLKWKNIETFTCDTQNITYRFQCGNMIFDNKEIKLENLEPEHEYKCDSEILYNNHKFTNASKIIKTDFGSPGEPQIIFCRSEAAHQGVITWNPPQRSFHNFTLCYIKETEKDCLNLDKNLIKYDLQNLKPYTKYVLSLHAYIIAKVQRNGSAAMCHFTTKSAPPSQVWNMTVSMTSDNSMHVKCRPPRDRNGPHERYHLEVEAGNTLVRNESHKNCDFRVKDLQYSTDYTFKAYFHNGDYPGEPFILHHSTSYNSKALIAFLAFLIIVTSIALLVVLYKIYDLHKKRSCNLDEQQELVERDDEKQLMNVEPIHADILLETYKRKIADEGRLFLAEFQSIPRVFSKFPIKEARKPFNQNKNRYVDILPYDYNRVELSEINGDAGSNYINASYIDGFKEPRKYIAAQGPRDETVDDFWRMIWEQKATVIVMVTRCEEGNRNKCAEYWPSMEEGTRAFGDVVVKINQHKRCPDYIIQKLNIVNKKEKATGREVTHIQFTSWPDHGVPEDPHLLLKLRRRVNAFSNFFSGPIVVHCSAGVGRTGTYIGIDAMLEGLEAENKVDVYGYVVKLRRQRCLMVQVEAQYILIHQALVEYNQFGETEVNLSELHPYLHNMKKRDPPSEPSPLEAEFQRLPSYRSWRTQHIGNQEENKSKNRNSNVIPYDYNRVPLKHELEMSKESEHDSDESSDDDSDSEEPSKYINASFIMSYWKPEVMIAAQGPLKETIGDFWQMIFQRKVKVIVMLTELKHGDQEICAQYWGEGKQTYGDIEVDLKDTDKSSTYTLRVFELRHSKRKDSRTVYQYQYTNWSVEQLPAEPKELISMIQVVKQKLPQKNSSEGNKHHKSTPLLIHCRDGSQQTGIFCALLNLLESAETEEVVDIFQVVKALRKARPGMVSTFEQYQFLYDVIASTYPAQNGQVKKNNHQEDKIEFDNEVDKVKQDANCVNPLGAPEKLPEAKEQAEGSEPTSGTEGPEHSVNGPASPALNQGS
# [3] = target: T3, DUSP22/MKPX (Homo sapiens, UniProt Q9NRW4); assay: Phosphatase panel, DiFMUP fluorescence assay; format: biochemical
# T3 construct: purchased Recation Biology Inc
# T3 sequence (Q9NRW4 1-184): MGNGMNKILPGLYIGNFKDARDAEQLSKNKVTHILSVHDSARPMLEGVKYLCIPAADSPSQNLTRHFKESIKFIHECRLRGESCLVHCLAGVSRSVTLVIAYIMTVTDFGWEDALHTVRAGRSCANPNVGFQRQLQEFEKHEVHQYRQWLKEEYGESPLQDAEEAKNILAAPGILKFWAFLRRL
# [4] = target: T4, PP1B (Homo sapiens, UniProt P62140); assay: Phosphatase panel, DiFMUP fluorescence assay; format: biochemical
# T4 construct: purchased Recation Biology Inc
# T4 sequence (P62140 whole entry): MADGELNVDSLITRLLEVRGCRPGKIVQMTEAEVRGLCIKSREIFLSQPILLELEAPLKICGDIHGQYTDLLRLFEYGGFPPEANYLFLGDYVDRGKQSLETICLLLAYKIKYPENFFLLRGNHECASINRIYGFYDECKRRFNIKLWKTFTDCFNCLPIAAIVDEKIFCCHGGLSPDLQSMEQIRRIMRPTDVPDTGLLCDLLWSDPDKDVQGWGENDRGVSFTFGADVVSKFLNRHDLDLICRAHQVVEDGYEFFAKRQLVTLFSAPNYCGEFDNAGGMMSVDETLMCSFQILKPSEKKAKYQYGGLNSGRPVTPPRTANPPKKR
# [5] = target: T5, PP1A (Homo sapiens, UniProt P62136); assay: Phosphatase panel, DiFMUP fluorescence assay; format: biochemical
# T5 construct: purchased Recation Biology Inc
# T5 sequence (P62136 whole entry): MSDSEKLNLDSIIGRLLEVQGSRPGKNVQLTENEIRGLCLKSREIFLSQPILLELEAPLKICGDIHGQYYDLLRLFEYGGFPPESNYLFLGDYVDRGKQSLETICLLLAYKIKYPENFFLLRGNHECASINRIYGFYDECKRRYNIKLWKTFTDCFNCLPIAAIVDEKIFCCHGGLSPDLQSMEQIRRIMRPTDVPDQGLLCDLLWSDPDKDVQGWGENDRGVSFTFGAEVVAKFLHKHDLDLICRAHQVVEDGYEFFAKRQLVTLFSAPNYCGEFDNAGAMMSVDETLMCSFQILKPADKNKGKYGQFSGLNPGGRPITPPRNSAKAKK
# [6] = target: T6, PTPN1/PTP1B-CD (Homo sapiens, UniProt P18031); assay: Phosphatase panel, DiFMUP fluorescence assay; format: biochemical
# T6 construct: purchased Recation Biology Inc
# T6 sequence (P18031 3-277 limits assumed): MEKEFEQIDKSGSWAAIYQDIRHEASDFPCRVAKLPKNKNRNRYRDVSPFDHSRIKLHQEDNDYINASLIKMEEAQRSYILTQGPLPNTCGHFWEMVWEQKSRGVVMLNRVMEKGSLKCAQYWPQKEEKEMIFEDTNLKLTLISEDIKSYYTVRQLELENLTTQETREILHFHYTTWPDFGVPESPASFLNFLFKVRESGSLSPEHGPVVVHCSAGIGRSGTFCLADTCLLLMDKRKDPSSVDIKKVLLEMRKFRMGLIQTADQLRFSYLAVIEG
# [7] = Table 5B, read-out: Compound IC50 (M) PTPRC/CD45
# [8] = Table 5B, read-out: Compound IC50 (M) DUSP22/MKPX
# [9] = Table 19A, read-out: inhibitory activity PP1B
# [10] = Table 19A, read-out: inhibitory activity PTPRC/CD45
# [11] = Table 19A, read-out: inhibitory activity DUSP22/MKPXPT
# [12] = Table 19A, read-out: inhibitory activity PP1A
# [13] = Table 19B, read-out: inhibitory activity PTPN1/PTP1B-CD
structure (smiles),measurement,setting,value
"CC(C)[C@@H](CC[C@@H](C)[C@H]1CC[C@H]2[C@@H]3[C@H](O)C[C@H]4C[C@@H](NCCCNCCCCNCCCN)CC[C@]4(C)[C@H]3CC[C@]12C)OS(=O)(=O)O (single isomer, unassigned) [ENT-02 (MSI-1436), trodusquemine]",IC50,[1],752 nM
same,IC50,[2]; [7],4.94e-07 M
same,IC50,[3]; [8],6.39e-07 M
"CC(CCC[C@@H](C)[C@H]1CCC2C3C(CC[C@@]21C)[C@@]1(C)CC[C@H](NCCCNCCCCNCCCN)C[C@@H]1C[C@H]3O)C(=O)O (single isomer, unassigned) [ENT-03]",IC50,[1],1420 nM
same,activity at PP1B,[4],inactive
same,IC50,"[4]; Table 5B, read-out: Compound IC50 (M) PP1B",> 0.0001 M
same,IC50,[4]; [9],> 0.0001 M
same,IC50,[2]; [7],5.71e-07 M
same,IC50,[2]; [10],5.17e-07 M
same,IC50,[3]; [8],1.38e-06 M
same,IC50,[3]; [11],1.38e-06 M
same,activity at PP1A,[5],inactive
same,IC50,"[5]; Table 5B, read-out: Compound IC50 (M) PP1A",> 0.0001 M
same,IC50,[5]; [12],> 0.0001 M
same,IC50,"[6]; Table 5C, read-out: Compound IC50 (M) PTPN1/PTP1B-CD",1.17e-07 M
same,IC50,[6]; [13],1.17e-07 M
"CC(CCC[C@@H](C)[C@H]1CCC2C3C(CC(O)[C@@]21C)[C@@]1(C)CC[C@H](NCCCNCCCCN)C[C@@H]1C[C@H]3O)C(=O)O (single isomer, unassigned) [ENT-05]",IC50,[1],976 nM
same,IC50,"[4]; Table 18A, read-out: inhibitory activity PP1B",> 0.0001 M
same,IC50,"[2]; Table 18A, read-out: inhibitory activity PTPRC/CD45",> 0.0001 M
same,IC50,"[3]; Table 18A, read-out: inhibitory activity DUSP22/MKPX",> 0.0001 M
same,IC50,"[5]; Table 18A, read-out: inhibitory activity PP1A",> 0.0001 M
same,IC50,"[6]; Table 18B, read-out: inhibitory activity PTPN1/PTP1B-CD",2.58e-06 M
"CC(CCC[C@@H](C)[C@H]1CCC2C3C(CC[C@@]21C)[C@@]1(C)CC[C@H](NCCCNCCCCN)C[C@@H]1C[C@H]3O)C(=O)O (single isomer, unassigned) [ENT-06]",IC50,[1],3170 nM
same,IC50,[4]; [9],> 0.0001 M
same,IC50,[2]; [10],1.22e-06 M
same,IC50,[3]; [11],2.09e-06 M
same,IC50,[5]; [12],> 0.0001 M
same,IC50,[6]; [13],1.47e-07 M
